Data as given in PMC5867665, “Targeting Multiple Effector Pathways in Pancreatic Ductal Adenocarcinoma with a G-Quadruplex-Binding Small Molecule” (Journal of Medicinal Chemistry, 2018).

What was measured:
[1] = system: MIA PaCa-2 pancreatic tumor xenograft; experiment: Subcutaneous MIA PaCa-2 pancreatic tumor xenograft therapy study; assay type: in vivo; conditions: for tumor regrowth after dosing stopped: 15 mg/kg, from day 28 onward
Protocol: To determine if the in vitro activity of CM03 was paralleled in vivo, we explored the activity of CM03 in a mouse xenograft model of PDAC. We have previously reported that the maximum tolerated dosage (MTD) for intravenous (IV) administration of MM41 is 25 mg/kg.[33] CM03 was well tolerated, up to a dosage of 45–50 mg/kg, as judged by a dose-escalation MTD study. A therapeutic schedule of two CM03 intravenous (IV) doses was explored using a subcutaneous MIA PaCa-2 pancreatic tumor xenograft model derived from the human cell line used in the cell growth inhibition studies. A group size of eight CD-1 nude mice was used, and dosing was conducted at 10 and 15 mg/kg, each twice weekly, over a period of 4 weeks (28 days: 8 doses). Two further groups were given either MM41 or gemcitabine at 15 mg/kg and received the same dose regimen. […] IVIS imaging of treated mice was performed by taking account of the intrinsic fluorescence of CM03. […] Thus, in contrast to MM41 and gemcitabine, the higher-dose CM03 treatment results in a statistically significant (p < 0.001) antitumor effect, which persisted long after dosing had ceased, up to the termination of the xenograft experiment (62 days).
For therapy studies, female CD-1 nude mice (2–3 months old, weighing 20–25 g) were injected subcutaneously with 5 × 10^6 MIA PaCa-2 cells in the right flank (unsupplemented RPMI + Matrigel). When the tumors were established (approximately 13 days, mean size 0.05 cm^3), the mice were divided into five treatment groups with eight mice/group. The MM41 and CM03 samples were dissolved directly in saline to the required concentrations and administered IV. Tumor size was measured weekly by calliper using the π-based ellipsoid volume formula (length × width × height × π/6) every 3–4 days, and the mice were also weighed and examined at the same time to determine any signs of toxicity from the drug.
• Group 1:15 mg/kg of gemcitabine (Sigma), twice weekly dose. • Group 2:15 mg/kg of MM41, twice weekly dose. • Group 3:10 mg/kg of CM03, twice weekly dose. • Group 4:15 mg/kg of CM03, twice weekly dose. • Group 5: saline only, twice weekly dose.
The xenograft data was analyzed using Student’s t test (GraphPad Inc.). Responses were considered to be significant for those with probabilities (p) less than 5% (p < 0.05). Mice were culled if there was any sign of tumor ulceration, if tumor volume exceeded 1.5 cm^3, or if a weight loss over 20% of initial body weight was observed. Samples of liver, kidney, and spleen from each animal in the CM03 (15 mg/kg) and untreated control groups were excised at the end of the therapy experiment, then fixed in 10% neutral buffered formalin for at least 48 h prior to processing and paraffin embedding. Tissue slices were stained with hematoxylin and eosin and assessed visually for any obvious differences compared with controls, indicative of toxicity and tissue damage. For the imaging study mice were anesthetized using isoflurane and imaged using the IVIS preclinical imaging system from PerkinElmer. Images were captured after 4 h following intravenous administration of CM03 using Cy5.5 excitation for 5 s.

[2] = system: DNA human telomeric G4 sequence 5′-d(GGGTTAGGGTTAGGGTTAGGG)-3′; experiment: Quantitative G4 binding (fluorescence anisotropy and direct fluorescence titrations)
Protocol: Quantitative binding estimates as KD values were obtained from fluorescence anisotropy titrations (MM41) and direct fluorescence titrations (CM03). The DNA human telomeric G4 sequence 5′-d([…])-3′ was used to enable direct comparisons to be made with the modeling studies. Both compounds bind with nanomolar affinity to this DNA G4, with a ∼3-fold difference between MM41 (20 ± 2 nM) and CM03 (67 ± 4 nM).
Human telomeric DNA G4 was prepared using oligonucleotides purchased from Integrated DNA Technologies (Coralville, IA, USA). The DNA purity and sequence was verified by mass spectrometry. Desalted oligonucleotide sequences were initially suspended in 150 mM NH4OAc (pH 6.8) in nuclease-free water to yield a final concentration of 1 mM and determined spectroscopically at 260 nm using the nearest-neighbor method. […]
Fluorescence anisotropy measurements were obtained on a Variant Cary Eclipse fluorescence spectrophotometer (Agilent Technologies, Santa Clara, CA, USA) equipped with a polarization attachment. […]
To determine dissociation constants, MM41 was added to a 3 mL volume of the experimental buffer (50 mM KCl, 10 mM Tris-HCl, 1 mM EDTA in nuclease-free water at 25 °C, pH 7.3) in a quartz fluorescence cuvette at a fixed concentration of 50 nM, and G4 was titrated into the cuvette. […] Each set of measurements were taken from a 50 s average reading measurement (PMT = 630 V). […]

hERG = hERG (Homo sapiens, UniProt Q12809); experiment: hERG liability (unpublished data)
Sequence of hERG (Q12809 whole entry): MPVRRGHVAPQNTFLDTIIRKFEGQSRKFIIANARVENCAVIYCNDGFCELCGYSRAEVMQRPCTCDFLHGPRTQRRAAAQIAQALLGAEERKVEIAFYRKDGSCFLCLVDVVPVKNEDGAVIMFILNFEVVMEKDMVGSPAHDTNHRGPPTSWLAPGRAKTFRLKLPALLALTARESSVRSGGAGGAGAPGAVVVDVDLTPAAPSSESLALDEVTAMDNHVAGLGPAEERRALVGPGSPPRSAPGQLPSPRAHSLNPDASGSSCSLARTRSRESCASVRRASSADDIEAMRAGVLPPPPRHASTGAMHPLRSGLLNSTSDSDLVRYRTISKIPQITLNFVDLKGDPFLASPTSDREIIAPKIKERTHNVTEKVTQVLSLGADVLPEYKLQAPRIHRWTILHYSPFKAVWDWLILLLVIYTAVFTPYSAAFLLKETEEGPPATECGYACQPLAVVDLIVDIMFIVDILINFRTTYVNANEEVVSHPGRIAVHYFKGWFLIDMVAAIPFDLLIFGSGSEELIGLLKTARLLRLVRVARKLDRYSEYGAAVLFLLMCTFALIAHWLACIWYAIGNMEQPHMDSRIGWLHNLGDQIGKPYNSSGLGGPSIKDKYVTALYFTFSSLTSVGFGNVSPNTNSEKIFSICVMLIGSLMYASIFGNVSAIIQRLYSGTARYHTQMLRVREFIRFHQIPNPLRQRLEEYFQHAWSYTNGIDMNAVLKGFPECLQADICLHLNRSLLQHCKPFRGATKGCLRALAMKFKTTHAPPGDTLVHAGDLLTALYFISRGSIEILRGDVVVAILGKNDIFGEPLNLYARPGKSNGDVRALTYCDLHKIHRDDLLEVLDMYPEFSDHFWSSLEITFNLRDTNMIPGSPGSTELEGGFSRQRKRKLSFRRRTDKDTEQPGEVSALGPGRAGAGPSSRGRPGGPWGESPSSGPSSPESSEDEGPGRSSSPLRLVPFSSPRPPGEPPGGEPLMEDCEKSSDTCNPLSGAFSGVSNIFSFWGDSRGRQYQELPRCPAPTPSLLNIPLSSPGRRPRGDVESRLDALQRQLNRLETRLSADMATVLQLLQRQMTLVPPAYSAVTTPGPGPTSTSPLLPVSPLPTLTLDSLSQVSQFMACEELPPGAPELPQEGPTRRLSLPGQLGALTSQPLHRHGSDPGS

[3] = 15 mg/kg IV twice weekly for 28 days

Row | SMILES | MTV ± SEM (Day 62) ([1]; 10 mg/kg IV twice weekly for 28 days) [cm^3] | IVIS imaging, accumulation in tumor xenograft ([1]; 10 mg/kg, 4 h after IV administration) | MTV ± SEM (Day 29) [1, 3] [cm^3] | MTV ± SEM (Day 62) [1, 3] [cm^3] | animals with tumor volumes that shrank to <0.05 cm^3 by day 62 ([1]; 15 mg/kg cohort) | body weight and adverse effects ([1]; 15 mg/kg cohort, any time during the study) | tumor regrowth after dosing stopped [1] | histopathological analysis of vital organs ([1]; animals sacrificed at the end of the experiments) | difference in KD between MM41 and CM03 [2] [fold] | hERG liabilities (hERG)
1 | O=C1c2ccc3c4c(c(NCCN5CCCC5)cc(c24)C(=O)N1CCCN1CCOCC1)C(=O)N(CCCN1CCOCC1)C3=O [CM03, 2,7-bis(3-morpholinopropyl)-4-((2-(pyrrolidin-1-yl)ethyl)amino)benzo[lmn][3,8]phenanthroline-1,3,6,8(2H,7H)-tetraone] | 0.29 ± 0.10 | significant accumulation of CM03 in the tumor xenograft | 0.04 ± 0.02 | 0.09 ± 0.05 | Five out of the eight | No body weight reduction | no tumor regrowth was observed | no sign of organ damage | ~3 | neither MM41 nor CM03 show significant hERG liabilities
2 | Nc1ccn([C@@H]2O[C@H](CO)[C@@H](O)C2(F)F)c(=O)n1 [gemcitabine, reference compound] | – | – | 0.05 ± 0.02 | 0.23 ± 0.10 | – | – | tumor regrowth being apparent as soon as dosing was stopped | – | – | –
